From ChEMBL document CHEMBL1201862, “PubChem BioAssay data set” (2004)
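Each compound was tested at five concentrations against cells in 96-well plates for 48 hours. At the GI50, growth is halved.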 Calls of active or inactive are those of the source. Cut-off read from the data, not from the text of the source: active = GI50 up to about 1.1 µM and inactive = higher.

Assays:
Assay in all cases: NCI tumour cell line growth inhibition, 48 h
[1] = test system: IGROV-1
[2] = test system: SN12C
[3] = test system: EKVX
[4] = test system: SNB-19
[5] = test system: HT-29
[6] = test system: OVCAR-5
[7] = test system: OVCAR-4
[8] = test system: COLO 205
[9] = test system: SNB-75
[10] = test system: NCI-H226
[11] = test system: UACC-257
[12] = test system: Hs-578T
[13] = test system: HOP-92
[14] = test system: Malme-3M
[15] = test system: MDA-MB-231
[16] = test system: A549
[17] = test system: U-251
[18] = test system: BT-549
[19] = test system: MCF7
[20] = test system: TK-10
[21] = test system: HCC 2998
[22] = test system: A498
[23] = test system: CCRF-CEM
[24] = test system: SF-268
[25] = test system: MDA-MB-435
[26] = test system: CAKI-1
[27] = test system: SK-MEL-5
[28] = test system: PC-3
[29] = test system: MDA-N
[30] = test system: KM12
[31] = test system: SK-MEL-2
[32] = test system: OVCAR-3
[33] = test system: SK-OV-3
[34] = test system: SF-539
[35] = test system: RPMI-8226
[36] = test system: 786-0
[37] = test system: ACHN
[38] = test system: UO-31
[39] = test system: M14
[40] = test system: HCT-116
[41] = test system: HOP-62
[42] = test system: RXF 393
[43] = test system: NCI-H23
[44] = test system: UACC-62
[45] = test system: HL-60
[46] = test system: NCI-H460
[47] = test system: SW-620
[48] = test system: HCT-15
[49] = test system: DU-145
[50] = test system: K562
[51] = test system: SK-MEL-28
[52] = test system: T47D
[53] = test system: LOX IMVI
[54] = test system: OVCAR-8
[55] = test system: NCI/ADR-RES

Measured: GI50

C[C@]12CC[C@@H]3c4cc(OCC(F)(F)F)c(O)cc4/C(=N/O)C[C@H]3[C@@H]1CC[C@@H]2O
inactive: [5] 3.62 µM | [6] 12.9 µM | [7] 7 µM | [8] 16 µM | [20] 23.7 µM | [21] 2.82 µM | [28] 2.56 µM
active: [1] 0.147 µM | [2] 0.0873 µM | [3] 230 nM | [4] 0.025 µM | [9] < 0.01 µM | [10] 0.27 µM | [11] 0.0509 µM | [12] 0.0215 µM | [13] 0.33 µM | [14] 0.0299 µM | [15] 0.0592 µM | [16] 0.0372 µM | [17] 0.026 µM | [18] < 0.01 µM | [19] 0.0247 µM | [22] 0.0977 µM | [23] < 16.3 nM | [24] 0.0484 µM | [25] < 0.0126 µM | [26] 46.8 nM | [27] 0.0232 µM | [29] 11 nM | [30] 537 nM | [31] 0.0351 µM | [32] 0.0156 µM | [33] 0.0384 µM | [34] 0.0188 µM

CC(SC(=S)N1CCCCC1)C(=O)Nc1nnc(-c2ccc(Cl)cc2)o1 (centres undefined)
active: [45] 575 nM
inactive: [35] 20.2 µM | [36] 16.9 µM | [37] 30.5 µM | [1] 32 µM | [2] 17.5 µM | [38] 17.8 µM | [4] 31.4 µM | [5] 23 µM | [6] 51.8 µM | [39] 20.1 µM | [7] 27.4 µM | [8] 34.9 µM | [40] 17.7 µM | [9] 20.1 µM | [41] 11.8 µM | [10] 38.5 µM | [11] 37.5 µM | [12] 40.6 µM | [42] 31.6 µM | [13] 45.8 µM | [14] 19.1 µM | [43] 42.1 µM | [15] 26.7 µM | [44] 25.2 µM | [16] 30.3 µM | [17] 24.7 µM | [18] 51.2 µM | [46] 27.2 µM | [19] 25.8 µM | [20] 50.6 µM | [21] 34.8 µM | [22] 22.9 µM | [24] 17.5 µM | [25] 34.1 µM | [47] 36.2 µM | [49] 32.1 µM | [27] 32.1 µM | [50] 41.4 µM | [51] 63.7 µM | [28] 24.2 µM | [52] 36.8 µM | [53] 23.6 µM | [54] 38.5 µM | [31] 21.7 µM | [32] 11 µM | [33] 21.5 µM | [34] 58.7 µM | [55] 17.5 µM
13 µM: [48]
